From ChEMBL document CHEMBL5352446, “Synthesis and biological evaluation of a novel c-Myc inhibitor against colorectal cancer via blocking c-Myc/Max heterodimerization and disturbing its DNA binding” (Eur J Med Chem, 2022)
The source made the active and inactive calls. No cut-off for these calls is given here.

Tests used:
HT-29 [1] = test: Downregulation of c-Myc expression in human HT-29 cells at 10 uM incubated for 24 hrs by Western blot analysis; format: functional, cell-based
HT-29 [2] = test: Induction of apoptosis in human HT-29 cells assessed as late apoptotic cells at 0.625 uM incubated for 24 hrs by FITC Annexin-V and PI staining based flow cytometry analysis (reference value: 0.78%); format: functional
HT-29 [3] = test: Antitumor activity against human HT-29 cells xenografted in BALB/c mouse assessed as tumor growth inhibition at 40 mg/kg, ip administered daily for 3 weeks by caliper method; format: functional; settings: HT-29, 504 h, read-out: TGI
HT-29 [4] = test: Induction of apoptosis in human HT-29 cells assessed as necrotic cells at 10 uM incubated for 24 hrs by FITC Annexin-V and PI staining based flow cytometry analysis (reference value: 0.13%); format: functional
HT-29 [5] = test: Induction of cell cycle arrest in human HT-29 cells assessed as accumulation of cells at G2 phase at 5 uM incubated for 24 hrs by propidium iodide staining based flow cytometry analysis (reference value: 16.33 %); format: functional
HT-29 [6] = test: Induction of cell cycle arrest in human HT-29 cells assessed as accumulation of cells at S phase at 2.5 uM incubated for 24 hrs by propidium iodide staining based flow cytometry analysis (reference value: 12.01 %); format: functional
HT-29 [7] = test: Induction of apoptosis in human HT-29 cells assessed as upregulation of Bax expression incubated for 24 hrs by Western blot analysis; format: functional, cell-based; settings: dose 2.5-10 µM
HT-29 [8] = test: Induction of apoptosis in human HT-29 cells assessed as upregulation of BAD expression incubated for 24 hrs by Western blot analysis; format: functional, cell-based; settings: dose 2.5-10 µM
[9] = Toxicity in BALB/c mouse xenografted with human HT-29 cells assessed as spleen damage at 40 to 80 mg/kg, ip measured after 21 days by H and E staining based assay; format: organism-based; settings: in vivo, 504 h, dose 40-80 mg/kg, time 21 day
HT-29 [10] = test: Induction of cell cycle arrest in human HT-29 cells assessed as accumulation of cells at G1 phase at 5 uM incubated for 24 hrs by propidium iodide staining based flow cytometry analysis (reference value: 65.37 %); format: functional
HT-29 [11] = test: Induction of apoptosis in human HT-29 cells assessed as necrotic cells at 5 uM incubated for 24 hrs by FITC Annexin-V and PI staining based flow cytometry analysis (reference value: 0.13%); format: functional
HT-29 [12] = test: Induction of apoptosis in human HT-29 cells assessed as early apoptotic cells at 1.25 uM incubated for 24 hrs by FITC Annexin-V and PI staining based flow cytometry analysis (reference value: 2.15%); format: functional
HT-29 [13] = test: Induction of cell cycle arrest in human HT-29 cells assessed as accumulation of cells at G2 phase at 2.5 uM incubated for 24 hrs by propidium iodide staining based flow cytometry analysis (reference value: 16.33 %); format: functional
HT-29 [14] = test: Induction of apoptosis in human HT-29 cells assessed as late apoptotic cells at 2.5 uM incubated for 24 hrs by FITC Annexin-V and PI staining based flow cytometry analysis (reference value: 0.78%); format: functional
HCT-116 = test: Downregulation of c-Myc expression in human HCT-116 cells incubated for 24 hrs by Western blot analysis; format: functional, cell-based; settings: dose 2.5-10 µM
HT-29 [15] = test: Induction of apoptosis in human HT-29 cells assessed as early apoptotic cells at 0.625 uM incubated for 24 hrs by FITC Annexin-V and PI staining based flow cytometry analysis (reference value: 2.15%); format: functional
HT-29 [16] = test: Antitumor activity against human HT-29 cells xenografted in BALB/c mouse assessed as tumor growth inhibition at 80 mg/kg, ip administered daily for 3 weeks by caliper method; format: functional; settings: HT-29, 504 h, read-out: TGI
[17] = Toxicity in BALB/c mouse xenografted with human HT-29 cells assessed as spleen damage at 40 mg/kg, ip measured after 21 days by H and E staining based assay; format: organism-based; settings: in vivo, 504 h, time 21 day
[18] = Toxicity in BALB/c mouse xenografted with human HT-29 cells assessed as heart damage at 40 to 80 mg/kg, ip measured after 21 days by H and E staining based assay; format: organism-based; settings: in vivo, 504 h, dose 40-80 mg/kg, time 21 day
Homo sapiens = organism: Homo sapiens; test: Inhibition of human c-Myc (353 to 439 residues)/Max(S) (151 residues) expressed in Escherichia coli BL21(DE3) binding to biotinylated double-stranded DNA oligonucleotide 5'-CACCCGGTCACTGGCCTACAC-3' (unknown origin) at 20 uM preincubated for 90 mins followed by oligonucleotide addition for 25 mins by EMSA; settings: time 115.0 min
[19] = Toxicity in BALB/c mouse xenografted with human HT-29 cells assessed as liver damage at 40 to 80 mg/kg, ip measured after 21 days by H and E staining based assay; format: organism-based; settings: in vivo, 504 h, dose 40-80 mg/kg, time 21 day
HT-29 [20] = test: Induction of apoptosis in human HT-29 cells assessed as upregulation of cleaved caspase 3 expression incubated for 24 hrs by Western blot analysis; format: functional, cell-based; settings: dose 2.5-10 µM
HT-29 [21] = test: Induction of apoptosis in human HT-29 cells assessed as viable cells at 1.25 uM incubated for 24 hrs by FITC Annexin-V and PI staining based flow cytometry analysis (reference value: 96.94%); format: functional; settings: read-out: Activity
L02 = test: Cytotoxicity against human L02 cells incubated for 72 hrs by MTT assay; format: toxicity, cell-based; settings: l02, 72 h
HT-29 [22] = test: Induction of cell cycle arrest in human HT-29 cells assessed as accumulation of cells at G2 phase at 0.625 uM incubated for 24 hrs by propidium iodide staining based flow cytometry analysis (reference value: 16.33 %); format: functional
HT-29 [23] = test: Induction of cell cycle arrest in human HT-29 cells assessed as accumulation of cells at G1 phase at 1.25 uM incubated for 24 hrs by propidium iodide staining based flow cytometry analysis (reference value: 65.37 %); format: functional
HT-29 [24] = test: Induction of cell cycle arrest in human HT-29 cells assessed as accumulation of cells at G1 phase at 2.5 uM incubated for 24 hrs by propidium iodide staining based flow cytometry analysis (reference value: 65.37 %); format: functional
[25] = Toxicity in BALB/c mouse xenografted with human HT-29 cells assessed as lung damage at 40 to 80 mg/kg, ip measured after 21 days by H and E staining based assay; format: organism-based; settings: in vivo, 504 h, dose 40-80 mg/kg, time 21 day

In the case of `COc1cc(Oc2ccc(Nc3ccc(CCCO)cc3)cc2)cc(OC)c1CNCCc1ccc(C(F)(F)F)cc1`, the Activity (HT-29 [1]) is reported as “Active”, the Activity (HT-29 [2]) is reported as 3.14% and the inhibition in vivo at 40 mg/kg (HT-29 [3]) is reported as 65.5%. For the same compound, the Activity (HT-29 [4]) was 1.87%, the Activity (HT-29 [5]) was 8.51% and the Activity (HT-29 [6]) was 14.32%. For the same compound, the Activity (HT-29 [7]) was “Dose-Dependent Effect”, the Activity (HT-29 [8]) was “Dose-Dependent Effect” and the Activity [9] was “Non-Toxic”. The Activity (HT-29 [10]) was 76.86%, the Activity (HT-29 [11]) was 1.29% and the Activity (HT-29 [12]) was 12.78%. The Activity (HT-29 [13]) was 8.23%, the Activity (HT-29 [14]) was 7.03% and the Activity (HCT-116) was “Dose-Dependent Effect”. The Activity (HT-29 [15]) was 5.9%, the inhibition in vivo at 80 mg/kg (HT-29 [16]) was 78.4% and the Activity [17] was “Toxic”. The Activity [18] was “Non-Toxic”, the inhibition (Homo sapiens) was 100% and the Activity [19] was “Non-Toxic”. For the same compound, the Activity (HT-29 [20]) was “Dose-Dependent Effect”, the viability at 1.25 µM (HT-29 [21]) was 81% and the Activity (L02) was “Non-Toxic”. For the same compound, the Activity (HT-29 [22]) was 11.95%, the Activity (HT-29 [23]) was 74.95% and the Activity (HT-29 [24]) was 75.57%. The Activity [25] was “Non-Toxic”.
